Results taken from patent US20230210825A1, “METHODS AND COMPOSITIONS FOR TREATING SUBJECTS WITH METABOLIC DISORDERS AND CORONAVIRUS INFECTIONS” (CIRIUS THERAPEUTICS, INC., priority 2020, published 2023).

Assays:
[1] = target: T1, mitochondrial pyruvate carrier (MPC) (Homo sapiens, UniProt O95563+Q9Y5U8); experiment: Relative binding affinity for the MPC (FIG. 2)
T1 sequence (Q9Y5U8 1-109): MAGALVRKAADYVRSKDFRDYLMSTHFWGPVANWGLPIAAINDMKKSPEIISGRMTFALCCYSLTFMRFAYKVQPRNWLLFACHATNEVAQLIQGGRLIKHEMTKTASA
T1 sequence (O95563 1-127): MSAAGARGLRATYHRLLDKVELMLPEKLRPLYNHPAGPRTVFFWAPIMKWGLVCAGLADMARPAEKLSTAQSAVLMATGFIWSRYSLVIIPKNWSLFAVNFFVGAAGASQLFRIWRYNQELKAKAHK

[2] = Earlier phase 2 trials: adiponectin at 28 days; parameters: species or system human; conditions: in vivo
[3] = tested on: mouse model of a metabolic disorder; conditions: reported earlier; effects require MPC expression in hepatocytes; cited from earlier work
[4] = target: T2, organic anion transporter 3 (OAT3) (Homo sapiens, UniProt Q8TCC7); experiment: OAT3 inhibition
T2 sequence (Q8TCC7 1-542): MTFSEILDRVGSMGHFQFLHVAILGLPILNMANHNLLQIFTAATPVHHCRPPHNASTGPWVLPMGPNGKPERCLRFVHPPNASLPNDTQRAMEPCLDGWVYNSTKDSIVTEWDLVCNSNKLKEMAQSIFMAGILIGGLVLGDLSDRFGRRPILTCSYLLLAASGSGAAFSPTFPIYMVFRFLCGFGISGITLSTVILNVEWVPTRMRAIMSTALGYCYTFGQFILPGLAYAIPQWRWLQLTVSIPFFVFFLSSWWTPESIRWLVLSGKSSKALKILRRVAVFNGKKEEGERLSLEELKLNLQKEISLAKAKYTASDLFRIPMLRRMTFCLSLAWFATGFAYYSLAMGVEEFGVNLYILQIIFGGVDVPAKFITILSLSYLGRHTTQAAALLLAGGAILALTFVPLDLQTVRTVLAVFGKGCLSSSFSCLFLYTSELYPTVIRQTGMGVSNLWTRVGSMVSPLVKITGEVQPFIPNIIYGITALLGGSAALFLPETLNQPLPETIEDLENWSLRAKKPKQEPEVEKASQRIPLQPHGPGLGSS

[5] = target: multidrug resistance protein 1 (MDR1) (Homo sapiens, UniProt P08183); experiment: MDR1 inhibition
[6] = target: T3, breast cancer-related protein (BCRP) (Homo sapiens, UniProt Q9UNQ0); experiment: BCRP inhibition; conditions: not told
T3 sequence (Q9UNQ0 1-655): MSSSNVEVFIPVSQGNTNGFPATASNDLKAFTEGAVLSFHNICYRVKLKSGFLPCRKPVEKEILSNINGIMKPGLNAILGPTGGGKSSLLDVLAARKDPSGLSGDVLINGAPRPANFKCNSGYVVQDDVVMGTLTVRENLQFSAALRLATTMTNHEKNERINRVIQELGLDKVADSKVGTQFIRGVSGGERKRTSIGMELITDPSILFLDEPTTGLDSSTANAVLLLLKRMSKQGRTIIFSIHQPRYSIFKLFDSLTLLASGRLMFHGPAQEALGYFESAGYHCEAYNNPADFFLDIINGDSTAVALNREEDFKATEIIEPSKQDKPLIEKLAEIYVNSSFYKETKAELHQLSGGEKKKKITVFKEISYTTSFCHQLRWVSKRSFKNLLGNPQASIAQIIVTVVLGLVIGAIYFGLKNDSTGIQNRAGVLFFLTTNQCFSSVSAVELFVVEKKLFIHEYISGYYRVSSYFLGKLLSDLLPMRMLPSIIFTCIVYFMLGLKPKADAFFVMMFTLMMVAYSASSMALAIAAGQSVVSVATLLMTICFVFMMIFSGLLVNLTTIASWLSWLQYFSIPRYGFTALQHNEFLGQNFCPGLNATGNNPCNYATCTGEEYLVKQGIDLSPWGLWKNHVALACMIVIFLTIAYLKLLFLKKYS

PPARγ = target: T4, PPARγ (Homo sapiens, UniProt P37231); experiment: Relative binding affinity for PPARγ (FIG. 1); conditions: FIG. 1, relative binding affinity
T4 sequence (P37231 1-505): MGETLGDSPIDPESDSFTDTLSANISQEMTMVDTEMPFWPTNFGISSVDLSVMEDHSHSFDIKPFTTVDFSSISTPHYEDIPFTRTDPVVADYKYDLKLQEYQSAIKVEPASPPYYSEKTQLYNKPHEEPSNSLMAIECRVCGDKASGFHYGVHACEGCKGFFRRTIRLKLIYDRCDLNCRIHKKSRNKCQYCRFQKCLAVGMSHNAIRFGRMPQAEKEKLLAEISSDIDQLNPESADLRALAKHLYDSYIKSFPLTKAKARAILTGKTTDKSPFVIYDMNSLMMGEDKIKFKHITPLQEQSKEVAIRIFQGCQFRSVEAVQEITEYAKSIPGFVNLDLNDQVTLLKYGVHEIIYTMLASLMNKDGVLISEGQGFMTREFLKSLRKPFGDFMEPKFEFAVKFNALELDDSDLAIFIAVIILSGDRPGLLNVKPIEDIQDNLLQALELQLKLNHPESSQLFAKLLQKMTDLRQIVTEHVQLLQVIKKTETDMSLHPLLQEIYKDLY

[7] = metabolite share of combined exposure after MSDC-0602
CYP2C8 = CYP2C8 (Homo sapiens, UniProt P10632)
CYP2C8, sequence (P10632 whole entry): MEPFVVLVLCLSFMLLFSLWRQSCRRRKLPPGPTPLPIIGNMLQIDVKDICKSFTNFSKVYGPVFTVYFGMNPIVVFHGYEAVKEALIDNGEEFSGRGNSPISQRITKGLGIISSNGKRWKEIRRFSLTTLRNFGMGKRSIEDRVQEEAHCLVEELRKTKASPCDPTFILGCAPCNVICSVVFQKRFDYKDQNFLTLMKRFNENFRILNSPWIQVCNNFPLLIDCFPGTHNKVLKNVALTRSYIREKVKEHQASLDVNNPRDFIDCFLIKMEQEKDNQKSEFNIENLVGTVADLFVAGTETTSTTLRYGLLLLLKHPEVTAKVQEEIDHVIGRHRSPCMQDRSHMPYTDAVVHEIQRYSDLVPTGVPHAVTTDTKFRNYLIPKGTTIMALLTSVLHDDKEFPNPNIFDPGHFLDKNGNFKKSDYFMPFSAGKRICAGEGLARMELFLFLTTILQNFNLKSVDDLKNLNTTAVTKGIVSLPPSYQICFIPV

Structure (SMILES) | binding to the MPC [1] | increase in adiponectin levels [2] | damage caused to the liver [3] | inhibition of organic anion transporter 3 (OAT3) [4] | inhibition of MDR1 [5] | inhibition of BCRP [6] | reduction in binding affinity for PPARγ compared to pioglitazone (PPARγ) | share of the combined exposure [7] | inhibition of CYP2C8 (CYP2C8)
COc1cccc(C(=O)COc2ccc(CC3SC(=O)NC3=O)cc2)c1 (centres unmarked) [MSDC-0602] | maintain, and in some cases improve, binding to the MPC | 146% | prevents and reverses damage caused to the liver | inhibitors | inhibitor | inhibitor |  |  | 
COc1cccc(C(O)COc2ccc(CC3SC(=O)NC3=O)cc2)c1 (centres unmarked) [MSDC-0597] | maintain, and in some cases improve, binding to the MPC |  |  | inhibitors |  |  | more than fifty-fold | more than 90% | weak inhibitor
